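96-well plates; 48 h exposure; 5 concentrations. Endpoints by linear interpolation between flanking doses. Not reached: highest tested concentration assigned. Abbreviation: GI50, concentration required for 50% inhibition of growth.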 Active and inactive are the calls of the source. Rule as the data show it: active = GI50 up to about 1.1 µM and inactive = higher.
Legend:
Test in all cases: NCI tumour cell line growth inhibition, 48 h
[1] = tested on: 786-0
[2] = tested on: COLO 205
[3] = tested on: DU-145
[4] = tested on: HCT-116
[5] = tested on: HOP-92
[6] = tested on: HT-29
[7] = tested on: K562
[8] = tested on: MDA-N
[9] = tested on: NCI-H23
[10] = tested on: NCI-H460
[11] = tested on: OVCAR-3
[12] = tested on: OVCAR-4
[13] = tested on: RPMI-8226
[14] = tested on: SK-MEL-28
[15] = tested on: SK-MEL-2
[16] = tested on: SK-MEL-5
[17] = tested on: SR
[18] = tested on: UACC-257
[19] = tested on: A498

Measured: GI50

COc1cc(NCc2ccc3oc(=O)c(-c4ccccc4)nc3c2)cc(OC)c1OC
inactive: [1] > 10 µM | [2] > 10 µM | [3] > 10 µM | [4] > 10 µM | [5] > 10 µM | [6] > 10 µM | [7] > 10 µM | [8] > 10 µM | [9] > 10 µM | [10] > 10 µM | [11] > 10 µM | [12] > 10 µM | [13] > 10 µM | [14] > 10 µM | [15] > 10 µM | [16] > 10 µM | [17] > 10 µM | [18] > 10 µM

COc1cc(C[C@H]2C(=O)OC[C@@H]2Cc2ccc(OC)c(OC)c2)cc(OC)c1
inactive: [1] > 100 µM | [2] 89.3 µM | [3] > 100 µM | [4] 34.7 µM | [5] 92.9 µM | [6] 33.2 µM | [7] 31.5 µM | [8] 58.5 µM | [9] 39.4 µM | [10] > 100 µM | [11] 59.3 µM | [12] 29.7 µM | [13] 52.7 µM | [14] 62.2 µM | [15] 78.5 µM | [16] 16.8 µM | [17] 30.5 µM | [18] 51.5 µM

CC1=C(c2ccc(C)cc2)NC(=S)C(C)C(c2ccc(C)cc2)=N1 (stereo not given)
inactive: [1] > 100 µM | [19] 26 µM | [2] > 100 µM | [3] > 100 µM | [4] 58.5 µM | [6] 65.6 µM | [7] 35.8 µM | [8] 83.9 µM | [9] 37 µM | [10] > 100 µM | [12] > 100 µM | [13] 40.6 µM | [14] 47.1 µM | [16] 60 µM | [17] > 10 µM | [18] 51.1 µM

CC1(C)CC(C#Cc2ccccc2)CC(C)(C)N1O
inactive: [1] 22.2 µM | [2] 20.6 µM | [3] 16.1 µM | [4] 20 µM | [5] 15.2 µM | [6] 14.2 µM | [7] 22.8 µM | [8] 15.8 µM | [9] 15.7 µM | [10] 18.3 µM | [11] 15.9 µM | [12] 43.4 µM | [13] 5.18 µM | [14] 16.6 µM | [15] 20.7 µM | [16] 16.1 µM | [17] 52.7 µM | [18] 16.6 µM

CCOC(=O)C1C2CCC1CC(=NNc1ccc([N+](=O)[O-])cc1[N+](=O)[O-])C2 (stereo not given)
inactive: [1] > 50 µM | [2] > 50 µM | [3] > 50 µM | [4] > 50 µM | [5] 15.8 µM | [6] 47.2 µM | [7] 29.2 µM | [8] > 50 µM | [9] > 50 µM | [10] > 50 µM | [11] > 50 µM | [12] > 50 µM | [13] 42.4 µM | [14] > 50 µM | [15] > 50 µM | [16] 46.2 µM | [17] 18.6 µM | [18] > 50 µM

O=C(CN1CCN(c2ccccc2)CC1)c1ccc2[nH]c(=O)oc2c1
inactive: [1] > 100 µM | [19] > 100 µM | [2] > 100 µM | [3] > 100 µM | [4] > 100 µM | [6] > 100 µM | [7] > 100 µM | [8] > 100 µM | [9] > 100 µM | [10] > 100 µM | [11] > 100 µM | [13] > 100 µM | [14] > 100 µM | [15] > 100 µM | [17] > 100 µM | [18] > 100 µM

COP(=O)(CC(=O)C1OC(OCc2ccccc2)C(OCc2ccccc2)C(OCc2ccccc2)C1OCc1ccccc1)OC (stereo not given)
inactive: [1] 12.5 µM | [2] 3.78 µM | [3] 22 µM | [4] 5.11 µM | [5] 10.4 µM | [6] 6.19 µM | [7] 4.31 µM | [8] 4.27 µM | [9] 8.47 µM | [10] 4.24 µM | [11] 8.87 µM | [12] 2.19 µM | [14] 54 µM | [15] 3.22 µM | [16] 4.23 µM | [17] 3.26 µM | [18] 6.81 µM

O=C1NC(N2CCCC(CO)C2)=N/C1=C\c1ccc(O)cc1 (stereo not given)
inactive: [1] > 100 µM | [2] > 100 µM | [3] > 100 µM | [4] > 100 µM | [5] > 100 µM | [6] > 100 µM | [7] > 100 µM | [8] > 100 µM | [9] > 100 µM | [11] > 100 µM | [12] > 100 µM | [13] > 100 µM | [14] > 100 µM | [15] > 100 µM | [16] > 100 µM | [17] > 100 µM | [18] > 100 µM

CCCNC(=O)Cn1c(C)cc2ccccc21
inactive: [1] > 100 µM | [2] > 100 µM | [3] > 100 µM | [4] > 100 µM | [5] > 100 µM | [6] > 100 µM | [7] > 100 µM | [8] > 100 µM | [9] > 100 µM | [10] > 10 µM | [11] > 100 µM | [12] > 100 µM | [13] > 100 µM | [14] > 100 µM | [15] > 100 µM | [16] > 100 µM | [17] > 100 µM | [18] > 100 µM

OC1CN=C2c3ccccc3C(O)(c3ccc(Cl)cc3)N2C1 (stereo not given)
inactive: [1] 55 µM | [2] 19.5 µM | [3] > 100 µM | [4] 35.6 µM | [5] 22 µM | [6] 32.9 µM | [7] 35.6 µM | [8] 35.4 µM | [9] 53.3 µM | [10] 43.9 µM | [11] > 100 µM | [12] > 100 µM | [13] 50.7 µM | [14] 49.7 µM | [15] > 100 µM | [16] > 10 µM | [17] 38.1 µM

BC(=O)NC(CC(C)C)C(=O)NC1c2ccsc2C(=O)C1O.CN(C)C (stereo not given)
inactive: [1] > 100 µM | [19] > 100 µM | [2] > 100 µM | [3] > 100 µM | [4] > 100 µM | [6] > 100 µM | [7] > 100 µM | [8] > 100 µM | [9] > 100 µM | [10] > 100 µM | [12] > 100 µM | [13] > 100 µM | [14] > 100 µM | [15] > 100 µM | [16] > 100 µM | [17] > 100 µM | [18] > 100 µM
